Among the test systems are 786-0; A498; A549; DU-145; HCT-15; HT-29; MDA-MB-435; MOLT-4; NCI-H522; NCI/ADR-RES; OVCAR-5; OVCAR-8; PC-3; RPMI-8226; SF-295; SF-539; SNB-75; UACC-257; UO-31; CCRF-CEM.
What all share (experiment): DTP human tumour cell line panel, 48 h

Eleven molecules from ChEMBL document CHEMBL1201862, “PubChem BioAssay data set” (2004) can be followed below.

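Method: 48-hour compound exposure of cells in 96-well plates, five concentrations, linear interpolation of endpoints. GI50 = concentration required for 50% inhibition of growth.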 Calls of active or inactive are those of the source. Cut-off read from the data, not from the text of the source: active = GI50 up to about 1.1 µM and inactive = higher.

With `N#C/C(=C\NC(=S)c1ccncc1)c1nc2ccccc2s1`, the GI50 in the assay with 786-0 was > 100 µM (inactive); in the assay on A498, > 100 µM (inactive); with A549 it was > 100 µM (inactive); in the assay on DU-145, > 100 µM (inactive); in the assay on HCT-15, greater than 100 µM; in the assay on HT-29, > 100 µM (inactive). Moreover, the GI50 is > 100 µM (inactive) in the assay on MDA-MB-435; 31.2 µM (inactive) in the assay with MOLT-4; > 100 µM (inactive) with NCI-H522; > 100 µM (inactive) with NCI/ADR-RES; > 100 µM (inactive) with OVCAR-5; > 100 µM (inactive) in the assay on OVCAR-8. For the same molecule, the GI50 was > 100 µM (inactive) with PC-3; > 100 µM (inactive) in the assay on RPMI-8226; > 100 µM (inactive) in the assay with SF-295; > 100 µM (inactive) with SF-539; 68.1 µM (inactive) in the assay on SNB-75; 30.9 µM (inactive) with UACC-257. Also, in the assay with UO-31, the GI50 is > 100 µM (inactive).

On to `Oc1cccnc1CN1CCCCC1`, for which the GI50 with 786-0 was > 100 µM (inactive); in the assay with A498, > 100 µM (inactive); in the assay on A549, > 100 µM (inactive); in the assay on DU-145, > 100 µM (inactive); in the assay with HCT-15, greater than 100 µM; with HT-29, > 100 µM (inactive). Further, the GI50 in the assay on MDA-MB-435, with MOLT-4, with NCI-H522, in the assay on NCI/ADR-RES, in the assay on OVCAR-5 and with OVCAR-8 was > 100 µM (inactive) throughout. For the same molecule, the GI50 in the assay with PC-3, in the assay on RPMI-8226, in the assay with SF-295, in the assay with SF-539, in the assay with SNB-75 and in the assay on UACC-257 was > 100 µM (inactive) in each case. The GI50 in the assay on UO-31 was > 100 µM (inactive).

As for `CC(=O)Nc1nc(O)c2nc(C=O)cnc2n1`, the GI50 in the assay with 786-0 is > 100 µM (inactive); in the assay on A498 it was > 100 µM (inactive); in the assay with A549, > 100 µM (inactive); in the assay with DU-145, > 100 µM (inactive); in the assay on HCT-15, greater than 100 µM; in the assay with HT-29, > 100 µM (inactive). Besides, the GI50 in the assay with MDA-MB-435, with MOLT-4, with NCI-H522, in the assay on NCI/ADR-RES, in the assay on OVCAR-5 and in the assay on OVCAR-8 was > 100 µM (inactive) each time. Further, the GI50 with PC-3, in the assay with RPMI-8226, in the assay with SF-295, in the assay on SF-539, in the assay on SNB-75 and in the assay with UACC-257 was > 100 µM (inactive) each time. The GI50 in the assay on UO-31 is > 100 µM (inactive).

`CNC(=S)N/N=C(\C(=N/NC(=S)NC)c1ccccn1)c1ccccn1`: the GI50 with 786-0 was 5.71 µM (inactive); in the assay with A498 it was 4.58 µM (inactive); in the assay with A549, 5.74 µM (inactive); in the assay on DU-145, 8.05 µM (inactive); in the assay on HCT-15, 0.232 µM; in the assay with HT-29, < 0.01 µM (active). Also, the GI50 with MDA-MB-435 was 13.8 µM (inactive); in the assay on NCI-H522, 1.77 µM (inactive); with NCI/ADR-RES, < 0.02 µM (active); in the assay on OVCAR-8, 0.687 µM (active); with PC-3, 1.03 µM (active); in the assay with RPMI-8226, 32.8 µM (inactive). Further, the GI50 is 3.15 µM (inactive) in the assay on SF-295; 45.8 µM (inactive) in the assay on SF-539; 20.8 µM (inactive) in the assay on SNB-75; 1.82 µM (inactive) in the assay with UACC-257; 2.48 µM (inactive) in the assay on UO-31.

Take `O=c1[nH]nc(-c2ccccc2)n1/N=C/c1c[nH]c2ccccc12`: the GI50 in the assay on 786-0 was 56.2 µM (inactive); in the assay on A498, > 100 µM (inactive); with A549, > 100 µM (inactive); in the assay on CCRF-CEM, > 100 µM (inactive); with DU-145, > 100 µM (inactive); with HCT-15, greater than 100 µM. Also, the GI50 in the assay with HT-29 was 41 µM (inactive); in the assay on MDA-MB-435 it was 77.1 µM (inactive); in the assay on MOLT-4, > 100 µM (inactive); with NCI-H522 it was > 100 µM (inactive); with NCI/ADR-RES, > 100 µM (inactive); in the assay on OVCAR-5 it was > 100 µM (inactive). For the same molecule, the GI50 in the assay with OVCAR-8 is 32.7 µM (inactive); in the assay on PC-3 it was > 100 µM (inactive); in the assay with RPMI-8226, > 100 µM (inactive); in the assay on SF-295, > 100 µM (inactive); in the assay on SF-539 it was > 100 µM (inactive); in the assay with UACC-257, > 100 µM (inactive). Also, the GI50 with UO-31 is > 100 µM (inactive).

As for `Cc1cc(CCC(=O)NCCNc2c3ccccc3nc3ccccc23)cc(C)c1O[Si](C)(C)C(C)(C)C`, the GI50 was 0.39 µM (active) with 786-0; 0.525 µM (active) in the assay with A498; 0.638 µM (active) in the assay on A549; 0.38 µM (active) in the assay with CCRF-CEM; 1.1 µM (active) in the assay on DU-145; 0.282 µM in the assay with HCT-15. The 50% growth inhibitory concentration (GI50) in the assay with HT-29 is 0.446 µM (active); with MDA-MB-435, 0.3 µM (active); with MOLT-4, 0.414 µM (active); with NCI-H522, 1.73 µM (inactive); with NCI/ADR-RES, 1.81 µM (inactive); in the assay with OVCAR-5 it was 1.69 µM (inactive). The GI50 in the assay with OVCAR-8 is 1.47 µM (inactive); in the assay with PC-3 it was 1.55 µM (inactive); with RPMI-8226 it was 0.331 µM (active); in the assay on SF-295, 0.807 µM (active); with SF-539, 0.194 µM (active); in the assay on UACC-257, 2.01 µM (inactive). The GI50 with UO-31 was 1.83 µM (inactive).

As for `COc1cccc(N2C(=O)CSC2c2cc(OC)c(OC)c(OC)c2)c1` (configuration not stated), the GI50 in the assay on 786-0 was 28.9 µM (inactive); with A498, > 100 µM (inactive); in the assay on A549, 37.1 µM (inactive); in the assay on CCRF-CEM, 19.1 µM (inactive); in the assay with DU-145, 12 µM (inactive); with HCT-15, 20 µM. For the same molecule, the GI50 was 33.1 µM (inactive) with HT-29; 3.85 µM (inactive) with MDA-MB-435; 29.8 µM (inactive) in the assay on MOLT-4; 26.4 µM (inactive) in the assay on NCI-H522; 26.5 µM (inactive) in the assay on NCI/ADR-RES; 54.8 µM (inactive) in the assay on OVCAR-5. Besides, the GI50 is 36 µM (inactive) in the assay on OVCAR-8; 55.1 µM (inactive) with PC-3; 29 µM (inactive) in the assay with RPMI-8226; 21.8 µM (inactive) in the assay with SF-295; 24.5 µM (inactive) in the assay with SF-539; 20.9 µM (inactive) in the assay on UACC-257. Also, in the assay on UO-31, the GI50 is 36.8 µM (inactive).

For the molecule `COc1ccc(-c2csc(-n3c(-c4ccccc4)nc4c(Br)cc(Br)cc4c3=O)n2)cc1`, the GI50 in the assay on 786-0 is 22.9 µM (inactive); in the assay on A498, 15.5 µM (inactive); in the assay with A549, 25.5 µM (inactive); in the assay with CCRF-CEM it was 13.1 µM (inactive); in the assay on DU-145 it was 39.2 µM (inactive); in the assay with HCT-15 it was 19.3 µM. Besides, the GI50 in the assay with HT-29 was 26.7 µM (inactive); in the assay on MDA-MB-435, 38.3 µM (inactive); with MOLT-4, 17.8 µM (inactive); in the assay on NCI-H522 it was 19.8 µM (inactive); in the assay on NCI/ADR-RES it was 19.6 µM (inactive); in the assay with OVCAR-5 it was 20.9 µM (inactive). Besides, the GI50 is 26.7 µM (inactive) in the assay on OVCAR-8; 25.8 µM (inactive) with PC-3; 7.74 µM (inactive) in the assay with RPMI-8226; 25.2 µM (inactive) in the assay on SF-295; 31.3 µM (inactive) with SNB-75; 30.3 µM (inactive) in the assay with UACC-257. Moreover, the GI50 in the assay on UO-31 was 23.4 µM (inactive).

Take `CC(=N/NC(=S)N(C)C)/C(=N\NC(=S)N(C)C)c1ccccc1`: the GI50 was 2 µM (inactive) in the assay on 786-0; 1.59 µM (inactive) in the assay with A498; 2.76 µM (inactive) in the assay on A549; 5.46 µM (inactive) with DU-145; 1.21 µM in the assay on HCT-15; 3.38 µM (inactive) in the assay with HT-29. The GI50 is 1.87 µM (inactive) in the assay with MDA-MB-435; 7.16 µM (inactive) in the assay with MOLT-4; 1.78 µM (inactive) with NCI-H522; 2.47 µM (inactive) with NCI/ADR-RES; 2.21 µM (inactive) in the assay with OVCAR-5; 2.02 µM (inactive) with OVCAR-8. For the same molecule, the GI50 in the assay with PC-3 is 2 µM (inactive); in the assay with RPMI-8226, 2.74 µM (inactive); in the assay with SF-295, 2.08 µM (inactive); in the assay on SF-539, 3.66 µM (inactive); in the assay with SNB-75, 2.12 µM (inactive); with UACC-257 it was 1.98 µM (inactive). The GI50 with UO-31 is 2.11 µM (inactive).

Turning to `O=C(/C=C1\N=C(c2ccccc2)N(c2nc3ccc(Sc4ccccc4)cc3[nH]2)C1=O)/C=C/c1ccccc1`, the GI50 with 786-0 is 33.3 µM (inactive); in the assay on A498, 27.9 µM (inactive); in the assay with A549, 41.1 µM (inactive); in the assay with CCRF-CEM, 31.6 µM (inactive); with DU-145, 28.1 µM (inactive); in the assay with HCT-15 it was 33.1 µM. Further, the GI50 in the assay on HT-29 was 30.3 µM (inactive); with MDA-MB-435, 15.7 µM (inactive); with MOLT-4 it was 33.3 µM (inactive); in the assay with NCI-H522, 20.3 µM (inactive); in the assay on NCI/ADR-RES, 24.4 µM (inactive); with OVCAR-5 it was 44 µM (inactive). Moreover, the GI50 in the assay on OVCAR-8 was 24.5 µM (inactive); with PC-3, 30.5 µM (inactive); in the assay on RPMI-8226 it was 22.6 µM (inactive); in the assay with SF-295 it was 28.2 µM (inactive); in the assay with SNB-75, 16.7 µM (inactive); in the assay on UACC-257, 30.8 µM (inactive). For the same molecule, the GI50 in the assay on UO-31 was 53.3 µM (inactive).

Regarding `Cc1ccc2nc(-c3ccc(-n4c(C)nc(=O)c(-c5ccc(F)cc5)c4C)cc3)sc2c1`, the GI50 with 786-0 is 13.6 µM (inactive); in the assay on A498, 18.2 µM (inactive); with A549, 14.7 µM (inactive); with CCRF-CEM, 13 µM (inactive); with DU-145, 15.9 µM (inactive); in the assay with HCT-15 it was 12.4 µM. The GI50 was 13.2 µM (inactive) in the assay on HT-29; 15.1 µM (inactive) in the assay with MDA-MB-435; 7 µM (inactive) with MOLT-4; 15.1 µM (inactive) in the assay on NCI-H522; 15 µM (inactive) in the assay with NCI/ADR-RES; 19.3 µM (inactive) in the assay on OVCAR-5. Besides, the GI50 in the assay on OVCAR-8 is 17.5 µM (inactive); with PC-3, 12.4 µM (inactive); in the assay on RPMI-8226 it was 4.06 µM (inactive); in the assay on SF-295, 17.5 µM (inactive); in the assay with SNB-75, 13.7 µM (inactive); with UACC-257 it was 16.1 µM (inactive). For the same molecule, in the assay on UO-31, the GI50 is 15 µM (inactive).
